According to ChEMBL document CHEMBL4118095, “Conjugation of Paclitaxel to Hybrid Peptide Carrier and Biological Evaluation in Jurkat and A549 Cancer Cell Lines” (ACS Med Chem Lett, 2017):

Test system: A549
Test: Cytotoxicity against human A549 cells measured after 24 hrs
Type: functional, cell-based
Conditions: A549, 24 h

With `CC(=O)O[C@H]1C(=O)[C@@]2(C)[C@H]([C@H](OC(=O)c3ccccc3)[C@]3(O)C[C@H](OC(=O)[C@H](O)[C@@H](NC(=O)c4ccccc4)c4ccccc4)C(C)=C1C3(C)C)[C@]1(OC(C)=O)CO[C@@H]1C[C@@H]2O` [PACLITAXEL] the IC50 was 4.1 nM.
